# Measurements as given in ChEMBL document CHEMBL3885881, “DrugMatrix”.
# Species: Rattus norvegicus
# Assay: DrugMatrix - Regimen: Daily Repeat
# Format: toxicity, organism-based, Sprague-Dawley
# Parameters: regimen Daily Repeat, gender Male, age 6-8 weeks
# Details: in vivo, po, route oral GAVAGE, vehicle .5 % CMC; for ABSOLUTE BASOPHIL / ABSOLUTE EOSINOPHIL / ABSOLUTE LYMPHOCYTE / ABSOLUTE MONOCYTE / ABSOLUTE SEGMENTED NEUTROPHIL / BASOPHIL / EOSINOPHIL / ERYTHROCYTE COUNT / HEMATOCRIT / HEMOGLOBIN / LEUKOCYTE COUNT / LYMPHOCYTE / MEAN CORPUSCULAR HEMOGLOBIN / MEAN CORPUSCULAR HEMOGLOBIN CONCENTRATION / MEAN CORPUSCULAR VOLUME / MONOCYTE / NEUTROPHIL / NUCLEATED RED BLOOD CELLS / PLATELET COUNT: tissue Blood; for ALANINE AMINOTRANSFERASE / ALBUMIN / ALKALINE PHOSPHATASE / ASPARTATE AMINOTRANSFERASE / BLOOD UREA NITROGEN / CARBON DIOXIDE / CHLORIDE / CHOLESTEROL / CREATINE PHOSPHOKINASE / CREATININE / GLUCOSE / LACTATE DEHYDROGENASE / LIPASE / PHOSPHORUS / POTASSIUM / SODIUM / TOTAL BILIRUBIN / TOTAL PROTEIN / URIC ACID: tissue Plasma
# [1] = 3 mg/kg, 120 h, dose level Low, time 5 day
# [2] = 30 mg/kg, 72 h, dose level High, time 3 day
# [3] = 30 mg/kg, 120 h, dose level High, time 5 day
smiles,measurement,setting,value
CC(=O)Nc1ccc2c(c1)Cc1ccccc1-2 [2-ACETYLAMINOFLUORENE],ABSOLUTE BASOPHIL,[1],0 CELLS/uL
same,ABSOLUTE EOSINOPHIL,[1],0 CELLS/uL
same,ABSOLUTE LYMPHOCYTE,[1],14012 CELLS/uL
same,ABSOLUTE MONOCYTE,[1],174.33 CELLS/uL
same,ABSOLUTE SEGMENTED NEUTROPHIL,[1],1113.67 CELLS/uL
same,BASOPHIL,[1],0%
same,EOSINOPHIL,[1],0%
same,ERYTHROCYTE COUNT,[1],5.69 x10E6/uL
same,HEMATOCRIT,[1],34.77%
same,HEMOGLOBIN,[1],13.53 G/DL
same,LEUKOCYTE COUNT,[1],15.3 x10E3/uL
same,LYMPHOCYTE,[1],92%
same,MEAN CORPUSCULAR HEMOGLOBIN,[1],23.73 pg
same,MEAN CORPUSCULAR HEMOGLOBIN CONCENTRATION,[1],39 G/DL
same,MEAN CORPUSCULAR VOLUME,[1],61 fL
same,MONOCYTE,[1],1%
same,NEUTROPHIL,[1],7%
same,NUCLEATED RED BLOOD CELLS,[1],0 /100WBC
same,PLATELET COUNT,[1],1174.67 x10E3/uL
same,ALANINE AMINOTRANSFERASE,[1],51 u/L
same,ALBUMIN,[1],4.03 G/DL
same,ALKALINE PHOSPHATASE,[1],355 u/L
same,ASPARTATE AMINOTRANSFERASE,[1],106.67 u/L
same,BLOOD UREA NITROGEN,[1],16.67 mg/dL
same,CARBON DIOXIDE,[1],29.67 mmol/L
same,CHLORIDE,[1],98 MEQ/L
same,CHOLESTEROL,[1],70.67 mg/dL
same,CREATINE PHOSPHOKINASE,[1],459.33 u/L
same,CREATININE,[1],0.16 mg/dL
same,GLUCOSE,[1],147 mg/dL
same,LACTATE DEHYDROGENASE,[1],770.33 u/L
same,LIPASE,[1],9.67 u/L
same,PHOSPHORUS,[1],11.37 mg/dL
same,POTASSIUM,[1],6.6 MEQ/L
same,SODIUM,[1],139.93 MEQ/L
same,TOTAL BILIRUBIN,[1],0.23 mg/dL
same,TOTAL PROTEIN,[1],5.9 G/DL
same,URIC ACID,[1],1.5 mg/dL
same,ABSOLUTE BASOPHIL,[2],0 CELLS/uL
same,ABSOLUTE EOSINOPHIL,[2],86 CELLS/uL
same,ABSOLUTE LYMPHOCYTE,[2],12836 CELLS/uL
same,ABSOLUTE MONOCYTE,[2],177.33 CELLS/uL
same,ABSOLUTE SEGMENTED NEUTROPHIL,[2],1034 CELLS/uL
same,BASOPHIL,[2],0%
same,EOSINOPHIL,[2],0.67%
same,ERYTHROCYTE COUNT,[2],5.86 x10E6/uL
same,HEMATOCRIT,[2],36.83%
same,HEMOGLOBIN,[2],14.6 G/DL
same,LEUKOCYTE COUNT,[2],14.13 x10E3/uL
same,LYMPHOCYTE,[2],90.67%
same,MEAN CORPUSCULAR HEMOGLOBIN,[2],24.9 pg
same,MEAN CORPUSCULAR HEMOGLOBIN CONCENTRATION,[2],39.6 G/DL
same,MEAN CORPUSCULAR VOLUME,[2],62.87 fL
same,MONOCYTE,[2],1.33%
same,NEUTROPHIL,[2],7.33%
same,NUCLEATED RED BLOOD CELLS,[2],0 /100WBC
same,PLATELET COUNT,[2],1279.33 x10E3/uL
same,ALANINE AMINOTRANSFERASE,[2],53.67 u/L
same,ALBUMIN,[2],3.73 G/DL
same,ALKALINE PHOSPHATASE,[2],368.67 u/L
same,ASPARTATE AMINOTRANSFERASE,[2],126.33 u/L
same,BLOOD UREA NITROGEN,[2],15 mg/dL
same,CARBON DIOXIDE,[2],22.67 mmol/L
same,CHLORIDE,[2],102 MEQ/L
same,CHOLESTEROL,[2],53 mg/dL
same,CREATINE PHOSPHOKINASE,[2],1143.67 u/L
same,CREATININE,[2],0.21 mg/dL
same,GLUCOSE,[2],158.67 mg/dL
same,LACTATE DEHYDROGENASE,[2],858.33 u/L
same,LIPASE,[2],10.33 u/L
same,PHOSPHORUS,[2],10.73 mg/dL
same,POTASSIUM,[2],6.07 MEQ/L
same,SODIUM,[2],142.33 MEQ/L
same,TOTAL BILIRUBIN,[2],0.2 mg/dL
same,TOTAL PROTEIN,[2],5.3 G/DL
same,URIC ACID,[2],1.47 mg/dL
same,ABSOLUTE BASOPHIL,[3],0 CELLS/uL
same,ABSOLUTE EOSINOPHIL,[3],0 CELLS/uL
same,ABSOLUTE LYMPHOCYTE,[3],17906.67 CELLS/uL
same,ABSOLUTE MONOCYTE,[3],125.33 CELLS/uL
same,ABSOLUTE SEGMENTED NEUTROPHIL,[3],368 CELLS/uL
same,BASOPHIL,[3],0%
same,EOSINOPHIL,[3],0%
same,ERYTHROCYTE COUNT,[3],6.43 x10E6/uL
same,HEMATOCRIT,[3],39.07%
same,HEMOGLOBIN,[3],15.4 G/DL
same,LEUKOCYTE COUNT,[3],18.4 x10E3/uL
same,LYMPHOCYTE,[3],97.33%
same,MEAN CORPUSCULAR HEMOGLOBIN,[3],24 pg
same,MEAN CORPUSCULAR HEMOGLOBIN CONCENTRATION,[3],39.43 G/DL
same,MEAN CORPUSCULAR VOLUME,[3],60.83 fL
same,MONOCYTE,[3],0.67%
same,NEUTROPHIL,[3],2%
same,NUCLEATED RED BLOOD CELLS,[3],0 /100WBC
same,PLATELET COUNT,[3],1336 x10E3/uL
same,ALANINE AMINOTRANSFERASE,[3],44 u/L
same,ALBUMIN,[3],3.8 G/DL
same,ALKALINE PHOSPHATASE,[3],317.33 u/L
same,ASPARTATE AMINOTRANSFERASE,[3],100.33 u/L
same,BLOOD UREA NITROGEN,[3],20.33 mg/dL
same,CARBON DIOXIDE,[3],27.33 mmol/L
same,CHLORIDE,[3],104.33 MEQ/L
same,CHOLESTEROL,[3],46.67 mg/dL
same,CREATINE PHOSPHOKINASE,[3],551.33 u/L
same,CREATININE,[3],0.22 mg/dL
same,GLUCOSE,[3],146.33 mg/dL
same,LACTATE DEHYDROGENASE,[3],501 u/L
same,LIPASE,[3],9.33 u/L
same,PHOSPHORUS,[3],11.33 mg/dL
same,POTASSIUM,[3],6.51 MEQ/L
same,SODIUM,[3],146.97 MEQ/L
same,TOTAL BILIRUBIN,[3],0.17 mg/dL
same,TOTAL PROTEIN,[3],5.4 G/DL
same,URIC ACID,[3],1.93 mg/dL
